Source: patent EP4603105A1, “PHARMACEUTICAL COMPOSITION CONTAINING CYCLIC COMPOUND HAVING SELECTIVE KRAS INHIBITORY EFFECT AGAINST HRAS AND NRAS” (CHUGAI SEIYAKU KABUSHIKI KAISHA, priority 2022, dated 2024)
*1 amine or outer side, *2 acyl side, *3 side chain or, on linkers, in order; H or OH if unused. Where a SMILES comes first, the peptide text is derived from it. Bridges are numbered along the chain shown (N, C = ends). [ ]: non-standard residue; d: D form. The star is where a group is joined. hPhe(3,5-F2-4-CF3) = N[C@@H](CCc1cc(F)c(C(F)(F)F)c(F)c1)C(=O)O; hPhe(3-Cl-4-CF3) = N[C@@H](CCc1ccc(C(F)(F)F)c(Cl)c1)C(=O)O; NPrPhe(4-CF3) = CCCN[C@@H](Cc1ccc(C(F)(F)F)cc1)C(=O)O; X8 = CCCN([C@@H](COCCC(C)C)C(=O)[*:2])[*:1]; NMeGly(cPent) = CN[C@H](C(=O)O)C1CCCC1; αMeI = CC[C@H](C)[C@](C)(N)C(=O)O; Hyp = O=C(O)[C@@H]1C[C@@H](O)CN1; Gly(N-propargyl) = C#CCNCC(=O)O; NMeD = CN[C@@H](CC(=O)O)C(=O)O; NMeL = CN[C@@H](CC(C)C)C(=O)O; Morpholide = C1CN(*)CCO1; NMeA = CN[C@@H](C)C(=O)O; Ac5c = NC1(C(=O)O)CCCC1; Aze = O=C(O)[C@@H]1CCN1; Ac4c = NC1(C(=O)O)CCC1; Sar = CNCC(=O)O

How the values were obtained:
[1] = molecular target: GDP-bound NRAS wild-type protein (Homo sapiens, UniProt P01111); assay: Binding to NRAS by surface plasmon resonance (SPR), KD and KD ratio to KRAS
GDP-bound NRAS wild-type protein, sequence (P01111 whole entry): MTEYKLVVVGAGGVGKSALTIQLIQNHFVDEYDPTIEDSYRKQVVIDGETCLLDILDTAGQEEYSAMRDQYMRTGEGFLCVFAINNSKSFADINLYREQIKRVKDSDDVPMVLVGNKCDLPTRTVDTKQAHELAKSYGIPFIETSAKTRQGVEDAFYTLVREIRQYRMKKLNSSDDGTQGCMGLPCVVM
Method in brief: (§1)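 GDP-loaded biotinylated Avi-tag RAS proteins (E. coli-expressed) captured on a Biotin CAPture chip at ~100–300 RU; single-cycle kinetics at 30°C, 100 µL/min, 75 s injections of rising compound concentrations. HBS pH 7.4 running buffer with 1 mM DTT, 10 mM MgCl2, 10 µM GDP, 4% DMSO. KD from 1:1 binding fit.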

HRAS wild-type protein = HRAS wild-type protein (Homo sapiens, UniProt P01112); assay: Binding to HRAS by surface plasmon resonance (SPR), KD and KD ratio to KRAS
HRAS wild-type protein, sequence (P01112 whole entry): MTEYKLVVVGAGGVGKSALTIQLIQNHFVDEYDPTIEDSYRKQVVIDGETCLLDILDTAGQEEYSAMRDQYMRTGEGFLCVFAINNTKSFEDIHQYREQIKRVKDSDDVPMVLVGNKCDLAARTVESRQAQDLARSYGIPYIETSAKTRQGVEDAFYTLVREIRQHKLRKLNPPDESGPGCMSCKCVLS
Method in brief: as §1

[2] = system: human lung cancer strain NCI-H441; type: cell-based
Method in brief: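 Readout: […] after the ATP-based reagent. Compound: serial dilutions in dimethyl sulfoxide.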

[3] = ratio of KD value for GDP-bound NRAS wild-type protein to KD value for KRAS (SPR)
[4] = ratio of KD value for HRAS wild-type protein to KD value for KRAS (SPR)
[5] = ratio of the KD value with respect to GDP-bound NRAS wild-type protein to the KD value with respect to KRAS
[6] = ratio of the KD value with respect to HRAS wild-type protein to the KD value with respect to KRAS
[7] = ratio of KD for GDP-bound NRAS wild-type protein to KD for KRAS
[8] = ratio of KD for HRAS wild-type protein to KD for KRAS

| Compound | NRAS /KRAS [1, 3] | HRAS /KRAS (HRAS wild-type protein; [4]) | IC50 [2] [nM] | NRAS /KRAS [1, 5] | HRAS /KRAS (HRAS wild-type protein; [6]) | NRAS /KRAS [1, 7] | HRAS /KRAS (HRAS wild-type protein; [8]) |
| --- | --- | --- | --- | --- | --- | --- | --- |
| CCO[C@@H]1C[C@H]2C(=O)NC3(CCC3)C(=O)N(C)[C@@H](C3CCCC3)C(=O)N(C)[C@H](C(=O)N(C)CC)CC(=O)N(C)[C@@H](CC)C(=O)N[C@@H]([C@@H](C)CC)C(=O)N(C)CC(=O)N(C)[C@H]3C/C=C\CCN(C3=O)[C@@H](CC3CCC(F)(F)CC3)C(=O)N(C)CC(=O)N[C@@H](CCc3cc(F)c(C(F)(F)F)c(F)c3)C(=O)N2C1 [PP1553] | A (a compound having 10 or more and less than 20 is denoted as A) | A (a compound having 10 or more and less than 20 is denoted as A) | 12.1 | – | – | – | – |
| CCOC[C@H]1C(=O)N[C@@H]([C@@H](C)CC)C(=O)N(C)CC(=O)N(C)[C@H]2C/C=C\CCN(C2=O)[C@@H](Cc2ccc(C(F)(F)F)cc2)C(=O)N(C)CC(=O)N[C@@H](CCc2ccc(C(F)(F)F)c(OC)c2)C(=O)N2C[C@H](OCC)C[C@H]2C(=O)NC2(CC(C)(C)C2)C(=O)N(C)[C@@H](C2CCCC2)C(=O)N(C)[C@H](C(=O)N(C)CC)CC(=O)N1C [PP2014] | – | – | 6.9 | A (a compound having 10 or more and less than 20 is denoted as A) | A (a compound having 10 or more and less than 20 is denoted as A) | – | – |
| CCO[C@@H]1C[C@H]2C(=O)N(C)C3(CCCC3)C(=O)N(C)[C@@H](C3CCCC3)C(=O)N(C)[C@H](C(=O)N(C)C)CC(=O)N(C)[C@@H](CC)C(=O)N[C@@H]([C@@H](C)CC)C(=O)N(C)CC(=O)N(C)[C@H]3C/C=C\CCN(C3=O)[C@@H](Cc3ccc(C(F)(F)F)cc3)C(=O)N(C)CC(=O)N[C@@H](CCc3cc(F)c(C(F)(F)F)c(F)c3)C(=O)N2C1 [PP1804] | A (a compound having 10 or more and less than 20 is denoted as A) | A (a compound having 10 or more and less than 20 is denoted as A) | 3.5 | – | – | – | – |
| CC[C@H](C)[C@@H]1NC(=O)[C@H](CC(F)(F)F)N(C)C(=O)C[C@@H](C(=O)N(C)C)N(C)C(=O)[C@H](C2CCCC2)N(C)C(=O)C2(CC(C)(C)C2)NC(=O)[C@@H]2C[C@H](C)CN2C(=O)[C@H](CCc2cc(F)c(C(F)(F)F)c(F)c2)NC(=O)CN(C)C(=O)[C@H](Cc2ccc(C(F)(F)F)cc2)N2CC/C=C\C[C@@H](C2=O)N(C)C(=O)CN(C)C1=O [PP1682] | AA (a compound having 20 or more is denoted as AA) | A (a compound having 10 or more and less than 20 is denoted as A) | 2.6 | – | – | – | – |
| C#CCN1CC(=O)N(C)CC(=O)N(CCC)[C@@H](Cc2ccc(C(F)(F)F)cc2)C(=O)N(C)CC(=O)N[C@@H](CCc2ccc(C(F)(F)F)c(Cl)c2)C(=O)N2CCC[C@H]2C(=O)NC2(CCCC2)C(=O)N(C)[C@@H](C2CCCC2)C(=O)N(C)[C@H](C(=O)N2CCOCC2)CC(=O)N(C)[C@@H](CC(C)C)C(=O)N[C@@H]([C@@H](C)CC)C1=O [PP0750] ([NMeL]I[Gly(N-propargyl)][Sar][NPrPhe(4-CF3)][Sar][hPhe(3-Cl-4-CF3)]P[Ac5c][NMeGly(cPent)][NMeD]-Morpholide; lactam N-11) | – | – | 11.1 | B (a compound having 3 or more and less than 10 is denoted as B) | C (A compound having a KD ratio of 0.1 or more and less than 3 is denoted as C) | – | – |
| CCCN1C(=O)CN(C)C(=O)CN(C)C(=O)[C@H]([C@@H](C)CC)NC(=O)[C@H](CC(C)C)N(C)C(=O)C[C@@H](C(=O)N2CCOCC2)N(C)C(=O)[C@H](C2CCCC2)N(C)C(=O)[C@@H](C)NC(=O)[C@@H]2CCCN2C(=O)[C@H](CCc2ccc(C(F)(F)F)c(Cl)c2)NC(=O)CN(C)C(=O)[C@@H]1Cc1ccc(C(F)(F)F)cc1 [PP0150] ([NMeL]I[Sar][Sar][NPrPhe(4-CF3)][Sar][hPhe(3-Cl-4-CF3)]P[dA][NMeGly(cPent)][NMeD]-Morpholide; lactam N-11) | – | – | 49.1 | – | – | B (a compound having 3 or more and less than 10 is denoted as B) | C (A compound having a KD ratio of 0.1 or more and less than 3 is denoted as C) |
| CCCN1C(=O)CN(C)C(=O)CN(C)C(=O)[C@H]([C@@H](C)CC)NC(=O)[C@H](CC(C)C)N(C)C(=O)C[C@@H](C(=O)N(C)C)N(C)C(=O)[C@H](C2CCCC2)N(C)C(=O)[C@](C)([C@@H](C)CC)NC(=O)[C@@H]2CCCN2C(=O)[C@H](CCc2cc(F)c(C(F)(F)F)c(F)c2)NC(=O)CN(C)C(=O)[C@@H]1Cc1ccc(C(F)(F)F)cc1 [PP0736] ([NMeL]I[Sar][Sar][NPrPhe(4-CF3)][Sar][hPhe(3,5-F2-4-CF3)]P[αMeI][NMeGly(cPent)][NMeD]-NMe2; lactam N-11) | – | – | 130 | B (a compound having 3 or more and less than 10 is denoted as B) | C (A compound having a KD ratio of 0.1 or more and less than 3 is denoted as C) | – | – |
| CC[C@H](C)[C@@H]1NC(=O)[C@H](CC2CC2)N(C)C(=O)C[C@@H](C(=O)N2CCCC2)N(C)C(=O)[C@H](C2CCCC2)N(C)C(=O)C2(CCCC2)NC(=O)[C@@H]2C[C@@H](C(F)(F)F)CN2C(=O)[C@H](CCc2cc(F)c(C(F)(F)F)c(F)c2)NC(=O)CN(C)C(=O)[C@H](Cc2ccc(C(F)(F)F)cc2)N2CC/C=C\C[C@@H](C2=O)N(C)C(=O)CN(C)C1=O [PP1506] | AA (a compound having 20 or more is denoted as AA) | A (a compound having 10 or more and less than 20 is denoted as A) | 73.4 | – | – | – | – |
| CCCN1C(=O)[C@@H]2CCN2C(=O)[C@H](C)N(C)C(=O)[C@H]([C@@H](C)CC)NC(=O)[C@H](CC(C)C)N(C)C(=O)C[C@@H](C(=O)N2CCOCC2)N(C)C(=O)[C@H](C2CCCC2)N(C)C(=O)C2(CCCC2)NC(=O)[C@@H]2C[C@@H](OCC)CN2C(=O)[C@H](CCc2ccc(C(F)(F)F)c(Cl)c2)NC(=O)CN(C)C(=O)[C@@H]1Cc1ccc(C(F)(F)F)cc1 [PP0228] ([NMeL]I[NMeA][Aze][NPrPhe(4-CF3)][Sar][hPhe(3-Cl-4-CF3)][Hyp](Et)[Ac5c][NMeGly(cPent)][NMeD]-Morpholide; lactam N-11) | – | – | 1.8 | – | – | C (A compound having a KD ratio of 0.1 or more and less than 3 is denoted as C) | B (a compound having 3 or more and less than 10 is denoted as B) |
| CCCN1C(=O)CN(C)C(=O)CN(C)C(=O)[C@H]([C@@H](C)CC)NC(=O)[C@H](CC(C)C)N(C)C(=O)C[C@@H](C(=O)N2CCOCC2)N(C)C(=O)[C@H](C2CCCC2)N(C)C(=O)C2(CCC2)NC(=O)[C@@H]2CCCN2C(=O)[C@H](CCc2ccc(C(F)(F)F)c(Cl)c2)NC(=O)CN(C)C(=O)[C@@H]1COCCC(C)C [PP1817] ([NMeL]I[Sar][Sar][X8][Sar][hPhe(3-Cl-4-CF3)]P[Ac4c][NMeGly(cPent)][NMeD]-Morpholide; lactam N-11) | C (A compound having a KD ratio of 0.1 or more and less than 3 is denoted as C) | C (A compound having a KD ratio of 0.1 or more and less than 3 is denoted as C) | 20.4 | – | – | – | – |
| C=CC[C@H]1C(=O)N[C@@H]([C@@H](C)CC)C(=O)N(C)CC(=O)N(C)[C@H]2CCCCN(C2=O)[C@@H](Cc2ccc(C(F)(F)F)cc2)C(=O)N(C)CC(=O)N[C@@H](CCc2cc(F)c(C(F)(F)F)c(F)c2)C(=O)N2C[C@H](OCC)C[C@H]2C(=O)N[C@](C)(CC=C)C(=O)N(C)[C@@H](C2CCCC2)C(=O)N(C)[C@H](C(=O)N2CCOCC2)CC(=O)N1C [PP0874] | – | – | 4.9 | – | – | C (A compound having a KD ratio of 0.1 or more and less than 3 is denoted as C) | B (a compound having 3 or more and less than 10 is denoted as B) |
| CCO[C@@H]1C[C@H]2C(=O)NC3(CCC3)C(=O)N(C)[C@@H](C3CCCC3)C(=O)N(CCC3CCCC3)[C@H](C(=O)N(C)C)CC(=O)N(C)[C@@H](CC(C)C)C(=O)N[C@@H]([C@@H](C)CC)C(=O)N(C)CC(=O)N(C)[C@H]3CCCCCN(C3=O)[C@@H](Cc3ccc(F)cc3)C(=O)N(C)CC(=O)N[C@@H](CCc3ccc(C(F)(F)F)c(Cl)c3)C(=O)N2C1 [PP0976] | – | – | 1180 | – | – | B (a compound having 3 or more and less than 10 is denoted as B) | B (a compound having 3 or more and less than 10 is denoted as B) |
| CCO[C@@H]1C[C@H]2C(=O)NC3(CCC3)C(=O)N(C)[C@@H](C3CCCC3)C(=O)N(C)[C@H](C3CCC3)CC(=O)N(C)[C@@H](CC3CC3)C(=O)N[C@@H]([C@@H](C)CC)C(=O)N(C)CC(=O)N(C)[C@H]3C/C=C\CCN(C3=O)[C@@H](Cc3ccc(C(F)(F)F)cc3)C(=O)N(C)CC(=O)N[C@@H](CCc3cc(F)c(C(F)(F)F)c(F)c3)C(=O)N2C1 [PP1637] | A (a compound having 10 or more and less than 20 is denoted as A) | A (a compound having 10 or more and less than 20 is denoted as A) | 32.5 | – | – | – | – |
| CCO[C@@H]1C[C@H]2C(=O)NC3(CCCC3)C(=O)N(C)[C@@H](C3CCCC3)C(=O)N(C)[C@H](C(=O)N3CCOCC3)CC(=O)N(C)[C@@H](COC)C(=O)N[C@@H]([C@@H](C)CC)C(=O)N(C)CC(=O)N(C)[C@H]3CCCCCN(C3=O)[C@@H](Cc3ccc(C(F)(F)F)cc3)C(=O)N(C)CC(=O)N[C@@H](CCc3cc(F)c(C(F)(F)F)c(F)c3)C(=O)N2C1 [PP0841] | – | – | 112 | – | – | B (a compound having 3 or more and less than 10 is denoted as B) | B (a compound having 3 or more and less than 10 is denoted as B) |
